From patent publication US12570666B2, “Furoindazole derivatives” (Bayer Aktiengesellschaft, priority 2019, dated 2026)

Molecular target: T1, human GPR84 receptor (Homo sapiens, UniProt Q9NQS5)
T1 construct: frozen aliquots prepared by acCELLerate; host or cells: CHO-K1
Assay: cAMP HTRF assay for identification of cellular GPR84 antagonists
Format: cell-based
Conditions: CHO-K1 cells stably expressing human GPR84; Forskolin + agonist 6-OAU (EC80); average or median values
Description: cAMP HTRF® Assay for Identification of Cellular GPR84 Antagonists
By using a Homogenous Time-Resolved Fluorescence (HTRF®) based assay (#62AM5PEJ, Cisbio, Condolet, France) the inhibition of the Gi-coupled GPR84 receptor can be detected. CHO-K1 cells stably expressing human GPR84 receptor (purchased from DiscoveRx, now Eurofins) were used and treated with Forskolin (F6886, Sigma, Germany) to stimulate membrane adenylyl cyclases and thereby unspecific cAMP formation. Activation of the Gi-coupled GPR84 by a natural or small molecule agonist (e.g. 6-n-octyl aminouracile, inhouse) results in inhibition of cellular cAMP formation which can be released again by antagonists to this receptor. Detection and quantification of cellular cAMP levels in this HTRF assay is achieved by interaction between a fluorescent cAMP tracer (cAMP-d2) and an Eu-cryptate labelled anti-cAMP antibody. Following excitation at 337 nm this pairing allows for the generation of a fluorescence resonance energy transfer (FRET) between the partners and results in FRET induced emissions at 665 nm and 620 nm, the latter representing background signal by Eu-cryptate labelled anti-cAMP antibody. Maximal signal is obtained in the absence of any cellular cAMP (no competition for the binding of the tracer to the antibody). Given the combination of the Gi coupling properties of GPR84 and the competitive nature of the detection system agonist treatment should result in an increase in the HTRF signal due to lowered cAMP levels. Any signal decrease in the presence of Forskolin, agonist and compound is indicative of antagonist mediated abrogation of GPR84 signalling.
For the assay, frozen aliquots of CHO-K1 cells expressing hGPR84 (prepared by acCELLerate, Hamburg, Germany) were thawed and a cell suspension (1.67E+06 cells/mL) in assay media (Ham's F12 Nutrient Mix, Thermo Fisher Scientific, Waltham, USA; 5% fetal calf serum, Biomol, Hamburg, Germany) containing cAMP-d2 (dilution 1:20, supplied with the kit #62AM5PEJ, Cisbio, Condolet, France) was prepared. After recovery of cells for 20 minutes at 37° C., 3 μL/well cell suspension including cAMP-d2 were added to a pre-dispensed assay plate (Greiner Bio-One, Kremsmuenster, Austria) containing 50 nl/well test compound in 100% DMSO or 100% DMSO as control. This was followed by a 30 minutes incubation step at room temperature. […] The reaction was stopped by addition of 3 μL/well lysis buffer containing cAMP Eu-Cryptate antibody (dilution 1:20) (both supplied with the kit #62AM5PEJ, Cisbio, Condolet, France). To enable complete lysis, plates were incubated for 60 minutes at room temperature before measurement in an HTRF reader, e.g. a PHERAstar (BMG Labtech, Ortenberg, Germany).
From the fluorescence emissions at 665 nm (FRET) and at 620 nm (background signal of Eu-cryptate) the ratio (emission at 665 nm divided by emission at 620 nm×10000) was calculated and the data were normalized (reaction without test compound, only 100% DMSO=0% inhibition; all other assay components except agonist=100% inhibition). For dose response testing on the same microtiter plate, compounds were tested at 11 different concentrations in the range of 20 μM to 0.07 nM (20 μM, 5.7 μM, 1.6 μM, 0.47 μM, 0.13 μM, 38 nM, 11 nM, 3.1 nM, 0.89 nM, 0.25 and 0.07 nM; dilution series prepared before the assay at the level of the 100-fold conc. stock solutions by serial 1:3.5 dilutions in 100% DMSO) in duplicate values for each concentration. IC50 values were calculated by 4-parameter fitting using a commercial software package (Genedata Screener, Basel, Switzerland).
Examples were tested in selected biological assays one or more times. […]

T1 sequence (Q9NQS5 whole entry): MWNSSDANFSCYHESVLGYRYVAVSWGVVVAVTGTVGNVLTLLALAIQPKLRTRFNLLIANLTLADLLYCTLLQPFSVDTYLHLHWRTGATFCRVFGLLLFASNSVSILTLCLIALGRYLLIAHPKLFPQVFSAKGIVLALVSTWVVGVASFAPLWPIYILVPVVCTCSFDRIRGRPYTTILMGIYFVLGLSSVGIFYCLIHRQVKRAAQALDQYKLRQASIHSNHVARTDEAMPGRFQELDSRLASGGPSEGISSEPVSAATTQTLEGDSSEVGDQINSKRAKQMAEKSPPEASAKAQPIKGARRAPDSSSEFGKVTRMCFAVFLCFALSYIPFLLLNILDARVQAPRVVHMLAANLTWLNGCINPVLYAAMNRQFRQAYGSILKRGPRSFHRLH

IC50 | Compound
140 nM | Cc1ncccc1Cn1cc2c(n1)-c1c(oc(C(=O)NC[C@@H]3CCCO3)c1C)CC2 [Example 73, 8-methyl-2-[(2-methylpyridin-3-yl)methyl]-N-[(2S)-tetrahydrofuran-2-ylmethyl]-4,5-dihydro-2H-furo[2,3-g]indazole-7-carboxamide]
35 nM | Cc1c(C(=O)NC[C@@H]2CCCO2)oc2c1-c1nn(Cc3ccccn3)cc1C(C)(C)C2 [Example 148, 4,4,8-trimethyl-2-(pyridin-2-ylmethyl)-N-[(2S)-tetrahydrofuran-2-ylmethyl]-4,5-dihydro-2H-furo[2,3-g]indazole-7-carboxamide]
266 nM | Cc1cccc(CNC(=O)c2oc3c(c2C(F)(F)F)-c2nn(C[C@H]4COCCO4)cc2[C@H](C)C3)n1 (single isomer, unassigned) [Example 315, (4R or 4S)-2-{[(2S)-1,4-dioxan-2-yl]methyl}-4-methyl-N-[(6-methylpyridin-2-yl)methyl]-8-(trifluoromethyl)-4,5-dihydro-2H-furo[2,3-g]indazole-7-carboxamide]
77 nM | Cc1c(C(=O)NC[C@@H]2CCCO2)oc2c1-c1nn(C[C@H]3COCCO3)cc1C1(CCC1)C2 [Example 143, 2′-[(2S)-1,4-dioxan-2-ylmethyl]-8′-methyl-N-[(2S)-tetrahydrofuran-2-ylmethyl]-2′,5′-dihydrospiro[cyclobutane-1,4′-furo[2,3-g]indazole]-7′-carboxamide]
56 nM | Cc1c(C(=O)NC[C@H]2CCCO2)oc2c1-c1nn(C[C@@H]3COc4ncccc4O3)cc1CC2 (racemic) [Example 51, 2-[(2R/S)-2,3-dihydro[1,4]dioxino[2,3-b]pyridin-2-ylmethyl]-8-methyl-N-[(2R/S)-tetrahydrofuran-2-ylmethyl]-4,5-dihydro-2H-furo[2,3-g]indazole-7-carboxamide]
20 nM | Cc1c(C(=O)NC[C@@H]2COCCO2)oc2c1-c1nn(Cc3ncccc3Cl)cc1CC2 [Example 61, 2-[(3-chloropyridin-2-yl)methyl]-N-[(2R)-1,4-dioxan-2-ylmethyl]-8-methyl-4,5-dihydro-2H-furo[2,3-g]indazole-7-carboxamide]
27 nM | CC(=O)N1CCC(Cn2cc3c(n2)-c2c(oc(C(=O)NC[C@@H]4COCCO4)c2C(F)(F)F)CC3)CC1 [Example 306]
3 nM | Cc1ccc(Cn2cc3c(n2)-c2c(oc(C(=O)NC[C@@H]4COCCO4)c2C(F)(F)F)CC32CC2)nc1 [Example 215, N-{[(2R)-1,4-dioxan-2-yl]methyl}-2′-[(5-methylpyridin-2-yl)methyl]-8′-(trifluoromethyl)-2′,5′-dihydrospiro[cyclopropane-1,4′-furo[2,3-g]indazole]-7′-carboxamide]
> 20000 nM | Cc1c(C(=O)NCc2nocc2C(=O)O)oc2c1-c1nn(Cc3ccccn3)cc1CC2 [Example 31, 3-[({[8-methyl-2-(pyridin-2-ylmethyl)-4,5-dihydro-2H-furo[2,3-g]indazol-7-yl]carbonyl}amino)methyl]-1,2-oxazole-4-carboxylic acid]
110 nM | Cc1c(C(=O)NCc2ncco2)oc2c1-c1nn(C[C@H]3COCCO3)cc1C1(CC1)C2 [Example 128, 2′-[(2S)-1,4-dioxan-2-ylmethyl]-8′-methyl-N-(1,3-oxazol-2-ylmethyl)-2′,5′-dihydrospiro[cyclopropane-1,4′-furo[2,3-g]indazole]-7′-carboxamide]
78 nM | Cc1ccc(CNC(=O)c2oc3c(c2C)-c2nn(Cc4ccccn4)cc2CC3)cc1 [Example 2, 8-methyl-N-[(4-methylphenyl)methyl]-2-[(pyridin-2-yl)methyl]-4,5-dihydro-2H-furo[2,3-g]indazole-7-carboxamide]
4 nM | Cc1ccc(Cn2cc3c(n2)-c2c(oc(C(=O)NC[C@@H]4COCCO4)c2C(F)(F)F)CC32CC2)cn1 [Example 212, N-{[(2R)-1,4-dioxan-2-yl]methyl}-2′-[(6-methylpyridin-3-yl)methyl]-8′-(trifluoromethyl)-2′,5′-dihydrospiro[cyclopropane-1,4′-furo[2,3-g]indazole]-7′-carboxamide]
683 nM | Cc1c(C(=O)NC[C@H]2CCC3(COC3)O2)oc2c1-c1nn(C[C@H]3COCCO3)cc1C1(CC1)C2 (single isomer, unassigned) [Example 201-1]
18 nM | Cc1c(C(=O)NC[C@@H]2CCCO2)oc2c1-c1nn(Cc3cccnc3)cc1CC2 [Example 44, 8-methyl-2-(pyridin-3-ylmethyl)-N-[(2S)-tetrahydrofuran-2-ylmethyl]-4,5-dihydro-2H-furo[2,3-g]indazole-7-carboxamide]
7 nM | O=C(NC[C@@H]1COCCO1)c1oc2c(c1C(F)(F)F)-c1nn(Cc3ccccn3)cc1C1(CC1)C2 [Example 219, N-[(2R)-1,4-Dioxan-2-ylmethyl]-2′-(pyridin-2-ylmethyl)-8′-(trifluormethyl)-2′,5′-dihydrospiro[cyclopropan-1,4′-furo[2,3-g]indazol]-7′-carboxamide]
16 nM | CC(=O)N1CCC(Cn2cc3c(n2)-c2c(oc(C(=O)NC[C@@H]4CCCO4)c2C(F)(F)F)CC3)CC1 [Example 305, 2-[(1-acetylpiperidin-4-yl)methyl]-N-{[(2S)-oxolan-2-yl]methyl}-8-(trifluoromethyl)-4,5-dihydro-2H-furo[2,3-g]indazole-7-carboxamide]
6560 nM | Cc1c(C(=O)NCc2cnoc2)oc2c1-c1nn(Cc3ccccn3)cc1CC2 [Example 24, 8-methyl-N-(1,2-oxazol-4-ylmethyl)-2-(pyridin-2-ylmethyl)-4,5-dihydro-2H-furo[2,3-g]indazole-7-carboxamide]
1890 nM | Cc1c(C(=O)NC[C@@H]2CCOC2)oc2c1-c1nn(Cc3ccccn3)cc1CC2 [Example 33-1, 8-methyl-2-(pyridin-2-ylmethyl)-N-[(3S)-tetrahydrofuran-3-ylmethyl]-4,5-dihydro-2H-furo[2,3-g]indazole-7-carboxamide]
160 nM | Cc1c(C(=O)NCc2nccs2)oc2c1-c1nn(Cc3ccccn3)cc1CC2 [Example 23, 8-methyl-2-(pyridin-2ylmethyl)-N-(1,3-thiazol-2-ylmethyl)-4,5-dihydro-2H-furo[2,3-g]indazole-7-carboxamide]
1190 nM | Cc1conc1CNC(=O)c1oc2c(c1C)-c1nn(Cc3ccccn3)cc1CC2 [Example 26, 8-methyl-N-[(4-methyl-1,2-oxazol-3-yl)methyl]-2-(pyridin-2-ylmethyl)-4,5-dihydro-2H-furo[2,3-g]indazole-7-carboxamide]
300 nM | Cc1c(C(=O)NCc2ccccn2)oc2c1-c1nn(Cc3ccccn3)cc1CC2 [Example 21, 8-methyl-N,2-bis(pyridin-2-ylmethyl)-4,5-dihydro-2H-furo[2,3-g]indazole-7-carboxamide]
83 nM | Cc1c(C(=O)NC[C@@H]2COCCO2)oc2c1-c1nn(CCNC(=O)OC(C)(C)C)cc1CC2 [Example 140, tert-butyl [2-(7-{[(2R)-1,4-dioxan-2-ylmethyl]carbamoyl}-8-methyl-4,5-dihydro-2H-furo[2,3-g]indazol-2-yl)ethyl]carbamate]
2890 nM | Cc1c(C(=O)NC[C@H]2CCOC2)oc2c1-c1nn(Cc3ccccn3)cc1CC2 [Example 33-2, 8-methyl-2-(pyridin-2-ylmethyl)-N-[(3R)-tetrahydrofuran-3-ylmethyl]-4,5-dihydro-2H-furo[2,3-g]indazole-7-carboxamide]
7070 nM | Cc1c(C(=O)NCC2(C)CCCO2)oc2c1-c1nn(Cc3ccccn3)cc1CC2 (racemic) [Example 173]
